“Also recorded” adds a separate entry of the source. Structures can show the parent of a compound that is named as a salt.
Key:
[1] = Shelf-stability of the formulated radiotracer in PBS (10% EtOH); assay type: physicochemical
Description: (§1) [^18F]4FN was synthesized on the automated module GE TracerLab-FX from precursor 1 in 6.8±2.5% (n=22) activity yield, by means of a copper-mediated radiofluorination of the corresponding Boc-protected pinacol boronic ester, followed by deprotection, purification and reformulation (Scheme 2; Tredwell et al., 2014). [^18F]4FN was obtained in >99% radiochemical purity, 50-140 GBq/μmol and up to 4 h shelf-stability in PBS (10% EtOH). [^18F]4FN was also stable in mouse plasma for at least 1 h.

[2] = Stability in mouse plasma; assay type: in vitro ADME
Description: as §1

[3] = tested on: PMA-induced ear inflammation; assay: PMA ear inflammation model, PET/CT imaging; assay type: in vivo, mouse; conditions: for detection of PMA-inflamed ear versus vehicle ear by PET: about 1 hr post tracer injection ([^18F]FDG from 45 min)
Description: 3 Months old Balb/c female mice or 20-26 week-old female C57B16 mice (Taconic) were topically treated with PMA (Sigma) (400 μM) in ethanol on the right ear or vehicle, ethanol, on the left ear. 24 hrs later, inflammation of the right ear was validated by visual inspection for redness and swelling. Mice were then injected IV (unless noted) with [^18F]FN or [^18F]FNS or [^18F]FNG derivatives as noted and PET/CT images were acquired at times indicated, typically 1 hr post injection. Mice, n=3 for [^18F]FN and [^18F]FNS, were euthanized at 1.5 hr post injection for blood metabolism analysis. In one experiment, adult (3 month old Balb/c) were imaged on an in vivo imaging system (IVIS Spectrum, PE; 5 min, binning 16, 25 cm FOV) 10 min post injection of Luminol (200 mg/kg) IP to confirm production of reactive oxygen species. For [^18F]FDG PET imaging experiments, mice were fasted for >4 hr prior to FDG injection. Mice were injected with [^18F]FDG IV under light anesthesia and then allowed to awake, move and drink water at libitum. Cages were kept on a cage warmer during uptake and washout periods. Mice were imaged starting at 45 min post-injection with a 10 min PET/CT scan (Albira, Bruker). In all cases, PET images were acquired for 10 min using a 15 cm FOV; CT images were acquired for fusion using a 7 cm FOV also centered on the object of interest. Image data were decay corrected to injection time (Albira, Bruker) and expressed as % ID/cc or SUV as indicated (PMOD, PMOD Technologies). Actual injected dose was calculated based on measuring the pre- and post-injection activity in the syringe with a dose calibrator on a per mouse basis (Capintec), and mice were individually weighed to calculate individual standardized uptake values. In the context of an acute inflammation model, [^18F]4FN was tested in a pilot experiment in Balb/c mice topically treated with PMA on the right ear or vehicle on the left ear. The treated ear turned red, visually confirming the inflammation site. Mice were injected IP with [^18F]4FN and PET/CT scans were taken at 11 min, 1 h, 2 h and 3 h post injection of tracer (FIG. 5). […] After 1 h, the inflamed ear was clearly visualized (>2% ID/cc). […] Production of reactive oxygen species in the inflamed ear was confirmed by BLI with luminol after PET imaging (FIG. 5) (Gross et al., 2009). This indicated the dependence of the signal on induced inflammation.

Nox2 = assay: PMA ear inflammation model in Nox2 KO mice, PET/CT imaging; assay type: in vivo, mouse; conditions: Nox2 KO mice (gp91phox-/-), IP, one-hour post administration
Description: Balb/c mice were treated with either PMA or vehicle and imaged 24 hr post treatment by PET/CT scan at 1 hr post-injection (IP) of [^18F]4FN (FIG. 1A); photograph 3 hr post [^18F]4FN (FIG. 1i). BLI 10 min post luminol injection (FIG. 1C). Aged-matched, 15-week-old female wild-type […] or Nox2 KO mice (n=3 each) were treated with PMA or vehicle and imaged with [^18F]4FN one-hour post IP administration of radiotracer. PET/CT data were quantified using ROIs surrounding the right and left ears. Contrast-to-noise ratios were calculated for all mice and data were plotted as mean and SEM. […] Radioactive HPLC trace and chemical structure of [^18F]4FN (FIG. 1E).
3 Months old Balb/c female mice or 20-26 week-old female C57B16 mice (Taconic) were topically treated with PMA (Sigma) (400 μM) in ethanol on the right ear or vehicle, ethanol, on the left ear. 24 hrs later, inflammation of the right ear was validated by visual inspection for redness and swelling. Mice were then injected IV (unless noted) with [^18F]FN or [^18F]FNS or [^18F]FNG derivatives as noted and PET/CT images were acquired at times indicated, typically 1 hr post injection. Mice, n=3 for [^18F]FN and [^18F]FNS, were euthanized at 1.5 hr post injection for blood metabolism analysis. […]

[4] = In vivo mouse blood and urine metabolism by radio-HPLC
Description: 3 Months old Balb/c female mice or 20-26 week-old female C57B16 mice (Taconic) were topically treated with PMA (Sigma) (400 μM) in ethanol on the right ear or vehicle, ethanol, on the left ear. 24 hrs later, inflammation of the right ear was validated by visual inspection for redness and swelling. Mice were then injected IV (unless noted) with [^18F]FN or [^18F]FNS or [^18F]FNG derivatives as noted and PET/CT images were acquired at times indicated, typically 1 hr post injection. Mice, n=3 for [^18F]FN and [^18F]FNS, were euthanized at 1.5 hr post injection for blood metabolism analysis. In one experiment, adult (3 month old Balb/c) were imaged on an in vivo imaging system (IVIS Spectrum, PE; 5 min, binning 16, 25 cm FOV) 10 min post injection of Luminol (200 mg/kg) IP to confirm production of reactive oxygen species. For [^18F]FDG PET imaging experiments, mice were fasted for >4 hr prior to FDG injection. Mice were injected with [^18F]FDG IV under light anesthesia and then allowed to awake, move and drink water at libitum. Cages were kept on a cage warmer during uptake and washout periods. Mice were imaged starting at 45 min post-injection with a 10 min PET/CT scan (Albira, Bruker).
In vivo mouse blood metabolism was also performed. Blood was drawn from inflamed, non-inflamed and MPO knock-out mice at 5 min and 1.5 h post injection, processed and analyzed by analytical radio-HPLC. […] While 4-fluoronaphthol metabolism has not been studied, naphthol metabolism is well documented in the literature: the molecule is reported to be quickly transformed into glucuronic and sulfuric esters, and this pathway is conserved from flies to man (Narukawa et al., 2004 and Terriere et al., 1961). […] To test this hypothesis, [^18F]4FN was transformed enzymatically with glucuronosyltransferase and sulfonyl transferase into the corresponding glucuronide and sulfate derivatives (Scheme 3), respectively, and the products analyzed by radio-HPLC.

LPS-induced arthritis = assay: LPS-induced model of arthritis, PET imaging and L-012 BLI; assay type: in vivo, mouse
Description: Herein, C57BL6/N mice were injected i.a. with LPS, left ankle, or vehicle, right ankle. After 24 hours, mild inflammation of the left ankle was confirmed by visual inspection. 1 hour dynamic PET scans were acquired post i.v. injection of [^18F]4FN. Mice were subsequently imaged for ROS by BLI (L-012). A) 1 hour static [^18F]4FN PET image (left) and BLI (right). B) PET image-derived time-activity curves (TACs) were quantified for the ankles (left, n=4). […] C) H&E staining cross-validated local inflammation (vehicle, left panel; LPS, right panel), utilizing the same mouse as imaged in A. D) Image-based biodistribution was calculated from the dynamic PET/CT data and SUV plotted for various organs over time.
[^18F]4FN PET was employed to image a model of inflammatory arthritis and validate its correlation with L012, a known ROS/RNS bioluminescence sensor.

[5] = tested on: neutrophil-like human HL-60 cells; assay: [^18F]4FN cellular retention in PMA-activated neutrophil-like HL-60 cells; assay type: cell-based
Description: HL-60 cells were first differentiated to yield “neutrophil-like” cells. Then, in parallel, cell aliquots from each batch were imaged with L-012 (to confirm ROS production by bioluminescence) and incubated with 6.2 kBq of [^18F]4FN. To induce ROS, all cells were incubated with PMA. […] Data were quantified as a ratio of the cell-associated radioactive counts per milligram protein over concentration of radiotracer in the extracellular space, and then normalized to vehicle.

4T1 tumor = 4T1 tumor PET imaging; assay type: in vivo, mouse; conditions: immunocompetent Balb/C mice, 1 h after injection
Description: 4T1 murine breast cancer cells were cultured and passaged per ATCC guidelines and utilized prior to 20 passages. 10,000 4T1 cells were injected subcutaneously into the right flank of 6-8 week old Balb/c mice. Tumors grew for 3 weeks prior to imaging. In all cases, PET images were acquired for 10 min using a 15 cm FOV; CT images were acquired for fusion using a 7 cm FOV also centered on the object of interest. Image data were decay corrected to injection time (Albira, Bruker) and expressed as % ID/cc or SUV as indicated (PMOD, PMOD Technologies). Actual injected dose was calculated based on measuring the pre- and post-injection activity in the syringe with a dose calibrator on a per mouse basis (Capintec), and mice were individually weighed to calculate individual standardized uptake values. [^18F]4FNS PET has been employed to visualize 4T1 tumors in immunocompetent Balb/C mice. 4T1 is a reliable murine model for triple negative breast cancer and, in its early proliferative stage, is believed to be heavily infiltrated by immune cells, particularly active neutrophils and myeloid derived suppressor cells (MDSCs; Wang et al., 2017 and Bunt et al., 2006).

Question: What does the source list for Oc1ccc([18F])c2ccccc12 [[^18F]4FN, 4-[^18F]fluoro-1-naphthol]?
Answer: shelf-stability [1]: up to 4 h; stable in mouse plasma [2]: at least 1 h; clearance of the tracer ([3]; Balb/c mice, IP injection): renal dominant; crossing of blood-brain barrier (radioactivity in the intracranial region) ([3]; Balb/c mice, IP injection): may not cross an intact blood-brain barrier; hepatobiliary excretion ([3]; Balb/c mice, IP injection): partial hepatobiliary excretion; radioactivity in the liver ([3]; Balb/c mice, IP injection): low; differentiation in uptake between inflamed right ear and vehicle treated left ear ([3]; Balb/c mice, IP injection, 11 min post-injection): no differentiation in uptake; uptake in inflamed ear ([3]; Balb/c mice, IP injection, 1 h post injection): > 2 % ID/cc; uptake-ratio between right-inflamed ear and left-control ear ([3]; IP injection, 11 min to 3 h post injection): increased over time; Cohen's d effect size, inflamed versus non-inflamed sites ([3]; IP or IV delivery, n=5): large Cohen's d effect sizes; contrast ratios inflamed versus non-inflamed ([3]; IP or IV delivery, n=5): strong contrast ratios; difference in SUV between inflamed and vehicle-treated ears ([3]; IP or IV delivery, n=5): statistically detectable differences in SUV; also recorded: statistically detectable differences in SUVaverage values; detection of PMA-inflamed ear versus vehicle ear by PET ([3]; IV injection): clearly visible; detection of PMA-inflamed ear versus vehicle ear by PET ([3]; IV injection, listed as [^18F]FN): readily detectable; difference between inflamed and non-inflamed ear in Nox2 KO mice versus WT (Nox2): substantially smaller compared to WT inflamed mice; also recorded: decreased contrast between PMA-treated and untreated ears; blood metabolites ([4]; 5 min after injection): Metabolites are also present; blood metabolites ([4]; inflamed mice, 1.5 h post injection): more polar metabolites were observed; blood radio-HPLC, parent compound ([4]; non-inflamed and MPO knock-out mice, 1.5 h post injection): the parent compound could still be seen; correlation of PET accumulation in inflamed ankles with L012 bioluminescence (LPS-induced arthritis; 1 hr, per animal basis): correlated strongly with L012; also recorded: directly correlated; imaging of inflammatory ROS burst by PET (LPS-induced arthritis; C57BL6/N mice, LPS i.a. left ankle, i.v. tracer): readily image the inflammatory ROS burst; [^18F]4FN retention in activated cells vs vehicle (ratio) ([5]; PMA-activated differentiated HL-60 cells, normalized to vehicle): > 1

Question: For O=S(=O)(O)Oc1ccc([18F])c2ccccc12 [[^18F]4FNS, [^18F]4-fluoronaphthalen-1-yl sulfate], which “detection of PMA-inflamed ear versus vehicle ear by PET” value ([3]; IV injection) is on record?
Answer: readily detected; also recorded: clearly visible; also recorded: readily detectable

Question: What about the clearance ([3]; IV injection, n=3) of the same compound?
Answer: Rapid primarily renal clearance

Question: And the “defluorination (bone)” value ([3]; IV injection, n=3)?
Answer: minor defluorination

Question: And the hepatobiliary excretion ([3]; IV injection, n=3)?
Answer: minor hepatobiliary excretion

Question: What about the “visualization of 4T1 tumor by PET” value (4T1 tumor) of the same compound?
Answer: clearly visible; also recorded: easily distinguishable

Question: With c1ccc2c(c1)[I+]c1ccccc1-2 [DPI, reference compound] as the compound, how does the “blocking of PMA-induced [^18F]4FN retention” value ([5]; pre-incubation with inhibitor prior to PMA) read?
Answer: blocked

Question: For OC[C@H]1OC(O)[C@H]([18F])[C@@H](O)[C@@H]1O (some centres unmarked) [[^18F]FDG, reference compound], which “detection of PMA-inflamed ear versus vehicle ear by PET” value ([3]; IV injection) is on record?
Answer: no differentiation between the ears; also recorded: no FDG image asymmetry was observed

Question: Which “difference between inflamed and vehicle ears (perfusion control)” value ([3]; same animals, same time points) does the source give for O=C([O-])CC(O)(CC(=O)[O-])C(=O)[O-].[68Ga+3] [^68Ga-citrate, reference compound] here?
Answer: No difference between the ears

Question: Which results are given for O=C(O)C1OC(Oc2ccc([18F])c3ccccc23)C(O)C(O)C1O (centres unmarked) [[^18F]4FNG, [^18F]4-fluoronaphthalen-1-yl glucuronide]?
Answer: detection of PMA-inflamed ear versus vehicle ear by PET ([3]; IV injection): small differentiation; clearance relative to other tracers ([3]; PMA model): cleared much faster; retention in PMA-inflamed ear relative to other tracers ([3]; PMA model, 1 h post injection): retained much less than [^18F]FN and [^18F]FNS
